Measured values published in ChEMBL document CHEMBL3217491, “Design, synthesis and biological evaluation of imidazopyridine/pyrimidine-chalcone derivatives as potential anticancer agents” (2010).
Calls of active or inactive are those of the source. The calls are words filed in the database; no cut-off is given here.

Key:
[1] = Growth inhibition of human OVCAR8 cells after 48 hrs by SRB assay; format: functional; conditions: OVCAR-8, 48 h
K562 = assay: Growth inhibition of human K562 cells after 48 hrs by SRB assay; format: functional; conditions: K562, 48 h
MCF7 [2] = assay: Cell cycle arrest in human MCF7 cells assessed as accumulation at G2/M phase at 4 uM after 24 hrs by propidium iodide staining-based flow cytometry (reference value: 15.79%); format: functional
SK-MEL-2 = assay: Growth inhibition of human SK-MEL-2 cells after 48 hrs by SRB assay; format: functional; conditions: SK-MEL-2, 48 h
SNB-19 = assay: Growth inhibition of human SNB19 cells after 48 hrs by SRB assay; format: functional; conditions: SNB-19, 48 h
[3] = Growth inhibition of human NCI-ADR-RES cells after 48 hrs by SRB assay; format: functional
[4] = Growth inhibition of human MOLT4 cells after 48 hrs by SRB assay; format: functional; conditions: MOLT-4, 48 h
SK-MEL-28 = assay: Growth inhibition of human SK-MEL-28 cells after 48 hrs by SRB assay; format: functional; conditions: SK-MEL-28, 48 h
HL-60(TB) = assay: Growth inhibition of human HL-60(TB) cells after 48 hrs by SRB assay; format: functional; conditions: HL-60, 48 h
[5] = Growth inhibition of human UO31 cells after 48 hrs by SRB assay; format: functional; conditions: UO-31, 48 h
T47D = assay: Growth inhibition of human T47D cells after 48 hrs by SRB assay; format: functional
KM12 = assay: Growth inhibition of human KM12 cells after 48 hrs by SRB assay; format: functional; conditions: KM12, 48 h
[6] = Growth inhibition of human BT549 cells after 48 hrs by SRB assay; format: functional; conditions: BT-549, 48 h
CCRF-CEM = assay: Growth inhibition of human CCRF-CEM cells after 48 hrs by SRB assay; format: functional
MCF7 [7] = assay: Cell cycle arrest in human MCF7 cells assessed as accumulation at S phase at 4 uM after 24 hrs by propidium iodide staining-based flow cytometry (reference value: 20.17%); format: functional
[8] = Growth inhibition of human SF539 cells after 48 hrs by SRB assay; format: functional; conditions: SF-539, 48 h
[9] = Growth inhibition of human LOXIMVI cells after 48 hrs by SRB assay; format: functional; conditions: LOX IMVI
786-0 = assay: Growth inhibition of human 786-0 cells after 48 hrs by SRB assay; format: functional; conditions: 786-0, 48 h
HCT-116 = assay: Growth inhibition of human HCT116 cells after 48 hrs by SRB assay; format: functional; conditions: HCT-116, 48 h
DU-145 = assay: Growth inhibition of human DU145 cells after 48 hrs by SRB assay; format: functional; conditions: DU-145, 48 h
SN12C = assay: Growth inhibition of human SN12C cells after 48 hrs by SRB assay; format: functional
[10] = Growth inhibition of human OVCAR5 cells after 48 hrs by SRB assay; format: functional; conditions: OVCAR-5, 48 h
[11] = Growth inhibition of human UACC62 cells after 48 hrs by SRB assay; format: functional; conditions: UACC-62, 48 h
ACHN = assay: Growth inhibition of human ACHN cells after 48 hrs by SRB assay; format: functional
[12] = Growth inhibition of human HOP92 cells after 48 hrs by SRB assay; format: functional; conditions: HOP-92, 48 h
[13] = Growth inhibition of human HCT15 cells after 48 hrs by SRB assay; format: functional; conditions: HCT-15, 48 h
SNB-75 = assay: Growth inhibition of human SNB75 cells after 48 hrs by SRB assay; format: functional; conditions: SNB-75, 48 h
TK-10 = assay: Growth inhibition of human TK10 cells after 48 hrs by SRB assay; format: functional; conditions: TK-10, 48 h
SK-MEL-5 = assay: Growth inhibition of human SK-MEL-5 cells after 48 hrs by SRB assay; format: functional; conditions: SK-MEL-5, 48 h
MDA-MB-468 = assay: Growth inhibition of human MDA-MB-468 cells after 48 hrs by SRB assay; format: functional; conditions: MDA-MB-468, 48 h
CAKI-1 = assay: Growth inhibition of human Caki1 cells after 48 hrs by SRB assay; format: functional; conditions: CAKI-1, 48 h
A549 = assay: Growth inhibition of human A549 cells after 48 hrs by SRB assay; format: functional; conditions: A549, 48 h
HT-29 = assay: Growth inhibition of human HT-29 cells after 48 hrs by SRB assay; format: functional; conditions: HT-29, 48 h
SK-OV-3 = assay: Growth inhibition of human SKOV3 cells after 48 hrs by SRB assay; format: functional; conditions: SK-OV-3, 48 h
NCI-H522 = assay: Growth inhibition of human NCI-H522 cells after 48 hrs by SRB assay; format: functional; conditions: NCI-H522, 48 h
HOP-62 = assay: Growth inhibition of human HOP62 cells after 48 hrs by SRB assay; format: functional; conditions: HOP-62, 48 h
M14 = assay: Growth inhibition of human M14 cells after 48 hrs by SRB assay; format: functional; conditions: M14, 48 h
SR = assay: Growth inhibition of human SR cells after 48 hrs by SRB assay; format: functional
PC-3 = assay: Growth inhibition of human PC3 cells after 48 hrs by SRB assay; format: functional; conditions: PC-3, 48 h
[14] = Growth inhibition of human UACC257 cells after 48 hrs by SRB assay; format: functional; conditions: UACC-257, 48 h
IGROV-1 = assay: Growth inhibition of human IGROV1 cells after 48 hrs by SRB assay; format: functional; conditions: IGROV-1, 48 h
NCI-H460 = assay: Growth inhibition of human NCI-H460 cells after 48 hrs by SRB assay; format: functional; conditions: NCI-H460, 48 h
RPMI-8226 = assay: Growth inhibition of human RPMI8226 cells after 48 hrs by SRB assay; format: functional; conditions: RPMI-8226, 48 h
NCI-H23 = assay: Growth inhibition of human NCI-H23 cells after 48 hrs by SRB assay; format: functional; conditions: NCI-H23, 48 h
NCI-H322M = assay: Growth inhibition of human NCI-H322M cells after 48 hrs by SRB assay; format: functional
Malme-3M = assay: Growth inhibition of human MALME-3M cells after 48 hrs by SRB assay; format: functional
MCF7 [15] = assay: Growth inhibition of human MCF7 cells assessed as cell viability at 4 uM after 24 hrs by MTT assay; format: functional, cell-based
COLO 205 = assay: Growth inhibition of human COLO205 cells after 48 hrs by SRB assay; format: functional; conditions: COLO 205, 48 h
NCI-H226 = assay: Growth inhibition of human NCI-H226 cells after 48 hrs by SRB assay; format: functional; conditions: NCI-H226, 48 h
[16] = Growth inhibition of human RXF393 cells after 48 hrs by SRB assay; format: functional; conditions: RXF 393, 48 h
[17] = Growth inhibition of human OVCAR4 cells after 48 hrs by SRB assay; format: functional; conditions: OVCAR-4, 48 h
U-251 = assay: Growth inhibition of human U251 cells after 48 hrs by SRB assay; format: functional; conditions: U-251, 48 h
MCF7 [18] = assay: Cell cycle arrest in human MCF7 cells assessed as accumulation at G0/G1 phase at 4 uM after 24 hrs by propidium iodide staining-based flow cytometry (reference value: 64.04%); format: functional
SW-620 = assay: Growth inhibition of human SW620 cells after 48 hrs by SRB assay; format: functional; conditions: SW-620, 48 h
[19] = Growth inhibition of human Hs578T cells after 48 hrs by SRB assay; format: functional; conditions: Hs-578T
MCF7 [20] = assay: Growth inhibition of human MCF7 cells after 48 hrs by SRB assay; format: functional; conditions: MCF7, 48 h
A498 = assay: Growth inhibition of human A498 cells after 48 hrs by SRB assay; format: functional; conditions: A498, 48 h
[21] = Growth inhibition of human SF295 cells after 48 hrs by SRB assay; format: functional; conditions: SF-295, 48 h
[22] = Growth inhibition of human HCC2998 cells after 48 hrs by SRB assay; format: functional; conditions: HCC 2998, 48 h
MDA-MB-231 = assay: Growth inhibition of human MDA-MB-231 cells after 48 hrs by SRB assay; format: functional; conditions: MDA-MB-231, 48 h
[23] = Growth inhibition of human OVCAR3 cells after 48 hrs by SRB assay; format: functional; conditions: OVCAR-3, 48 h
MDA-MB-435 = assay: Growth inhibition of human MDA-MB-435 cells after 48 hrs by SRB assay; format: functional; conditions: MDA-MB-435, 48 h
[24] = Growth inhibition of human EKVX cells after 48 hrs by SRB assay; format: functional
SF-268 = assay: Growth inhibition of human SF268 cells after 48 hrs by SRB assay; format: functional; conditions: SF-268, 48 h

COc1cc(C(=O)/C=C/c2c(-c3ccc(F)cc3)nc3ncccn23)cc(OC)c1OC
GI50 [1]: 2.69 µM | GI50 (K562): 3.03 µM | Activity (MCF7 [2]): 3.95% | GI50 (SK-MEL-2): 2.38 µM | GI50 (SNB-19): 3.12 µM | GI50 [3]: 1.58 µM | GI50 [4]: 3.75 µM | GI50 (SK-MEL-28): 3.68 µM | GI50 (HL-60(TB)): 3.33 µM | GI50 [5]: 0.73 µM | GI50 (T47D): 2.09 µM | GI50 (KM12): 1.69 µM | GI50 [6]: 1.8 µM | GI50 (CCRF-CEM): 4.05 µM | Activity (MCF7 [7]): 21.89% | GI50 [8]: 1.55 µM | GI50 [9]: 1.57 µM | GI50 (786-0): 2.76 µM | GI50 (HCT-116): 1.53 µM | GI50 (DU-145): 1.63 µM | GI50 (SN12C): 2.26 µM | GI50 [10]: 2.46 µM | GI50 [11]: 1.74 µM | GI50 (ACHN): 2.21 µM | GI50 [12]: 1.77 µM | GI50 [13]: 2.11 µM | GI50 (SNB-75): 2.39 µM | GI50 (TK-10): 3.25 µM | GI50 (SK-MEL-5): 2.22 µM | GI50 (MDA-MB-468): 2.75 µM | GI50 (CAKI-1): 2.06 µM | GI50 (A549): 3.34 µM | GI50 (HT-29): 2.52 µM | GI50 (SK-OV-3): 2.64 µM | GI50 (NCI-H522): 2.87 µM | GI50 (HOP-62): 3.12 µM | GI50 (M14): 2.16 µM | GI50 (SR): 2.28 µM | GI50 (PC-3): 4.35 µM | GI50 [14]: 3.73 µM | GI50 (IGROV-1): 1.93 µM | GI50 (NCI-H460): 1.59 µM | GI50 (RPMI-8226): 2.56 µM | GI50 (NCI-H23): 1.58 µM | GI50 (NCI-H322M): 2.07 µM | GI50 (Malme-3M): 2.84 µM | inhibition (MCF7 [15]): Active | GI50 (COLO 205): 1.7 µM | GI50 (NCI-H226): 3.08 µM | GI50 [16]: 1.44 µM | GI50 [17]: 2.93 µM | GI50 (U-251): 1.68 µM | Activity (MCF7 [18]): 74.16% | GI50 (SW-620): 2.09 µM | GI50 [19]: 2.01 µM | GI50 (MCF7 [20]): 1.61 µM | GI50 (A498): 2.2 µM | GI50 [21]: 2.43 µM | GI50 [22]: 1.77 µM | GI50 (MDA-MB-231): 2.99 µM | GI50 [23]: 1.4 µM | GI50 (MDA-MB-435): 2.36 µM | GI50 [24]: 2.71 µM | GI50 (SF-268): 1.9 µM
